Measurements from ChEMBL document CHEMBL3046287, “Azoxystrobin resistance of French Mycosphaerella graminicola strains assessed by four in vitro bioassays and by screening of G143A substitution” (Crop Prot, 2010).
Converted amounts (≈) assume the structure as drawn.

Legend:
Type in all cases: functional, organism-based
Zymoseptoria tritici [1] = assay: Antifungal activity against azoxystrobin-sensitive Zymoseptoria tritici T0464 carrying cytochrome-b G143 allele assessed as fungal growth inhibition after 6 days at 20 degC by microplate without alamar blue assay; details: T0464, 144 h
Zymoseptoria tritici [2] = assay: Antifungal activity against azoxystrobin-sensitive Zymoseptoria tritici T0468 carrying cytochrome-b G143 allele assessed as fungal growth inhibition after 6 days at 20 degC by microplate without alamar blue assay; details: T0468, 144 h
Zymoseptoria tritici [3] = assay: Antifungal activity against azoxystrobin-sensitive Zymoseptoria tritici T0460 carrying cytochrome-b G143 allele assessed as fungal growth inhibition after 6 days at 20 degC by microplate without alamar blue assay; details: T0460, 144 h
Zymoseptoria tritici [4] = assay: Antifungal activity against azoxystrobin-sensitive Zymoseptoria tritici T0384 carrying cytochrome-b G143 allele assessed as inhibition of spore germination after 2 days at 18 degC by spotting on PDA medium assay; details: T0384, 48 h
Zymoseptoria tritici [5] = assay: Antifungal activity against azoxystrobin-sensitive Zymoseptoria tritici T0403 carrying cytochrome-b G143 allele assessed as inhibition of spore germination after 2 days at 18 degC by spotting on PDA medium assay; details: T0403, 48 h
Zymoseptoria tritici [6] = assay: Antifungal activity against azoxystrobin-resistant Zymoseptoria tritici T0293 carrying cytochrome-b A143 allele assessed as inhibition of spore germination after 2 days at 18 degC by spotting on PDA medium assay; details: T0293, 48 h
Zymoseptoria tritici [7] = assay: Antifungal activity against azoxystrobin-resistant Zymoseptoria tritici T0290 carrying cytochrome-b A143 allele assessed as inhibition of spore germination after 2 days at 18 degC by spotting on PDA medium assay; details: T0290, 48 h
Zymoseptoria tritici [8] = assay: Antifungal activity against azoxystrobin-resistant Zymoseptoria tritici T0485 carrying cytochrome-b A143 allele assessed as fungal colony perpendicular diameter changes after 10 days at 18 degC by spotting on PDA medium assay; details: T0485, 240 h
Zymoseptoria tritici [9] = assay: Antifungal activity against azoxystrobin-sensitive Zymoseptoria tritici T0278 carrying cytochrome-b G143 allele assessed as fungal colony perpendicular diameter changes after 10 days at 18 degC by spotting on PDA medium assay; details: T0278, 240 h
Zymoseptoria tritici [10] = assay: Antifungal activity against azoxystrobin-sensitive Zymoseptoria tritici T0365 carrying cytochrome-b G143 allele assessed as fungal colony perpendicular diameter changes after 10 days at 18 degC by spotting on PDA medium assay; details: T0365, 240 h
Zymoseptoria tritici [11] = assay: Antifungal activity against azoxystrobin-resistant Zymoseptoria tritici T055 carrying cytochrome-b A143 allele assessed as fungal colony perpendicular diameter changes after 10 days at 18 degC by spotting on PDA medium assay; details: T055, 240 h
Zymoseptoria tritici [12] = assay: Antifungal activity against azoxystrobin-resistant Zymoseptoria tritici T0345 carrying cytochrome-b A143 allele assessed as fungal colony perpendicular diameter changes after 10 days at 18 degC by spotting on PDA medium assay; details: T0345, 240 h
Zymoseptoria tritici [13] = assay: Antifungal activity against azoxystrobin-sensitive Zymoseptoria tritici T0464 carrying cytochrome-b G143 allele assessed as inhibition of spore germination after 2 days at 18 degC by spotting on PDA medium assay; details: T0464, 48 h
Zymoseptoria tritici [14] = assay: Antifungal activity against azoxystrobin-sensitive Zymoseptoria tritici T0211 carrying cytochrome-b G143 allele assessed as inhibition of spore germination after 2 days at 18 degC by spotting on PDA medium assay; details: T0211, 48 h
Zymoseptoria tritici [15] = assay: Antifungal activity against azoxystrobin-sensitive Zymoseptoria tritici IPO94269 carrying cytochrome-b G143 allele assessed as inhibition of spore germination after 2 days at 18 degC by spotting on PDA medium assay; details: IPO94269, 48 h
Zymoseptoria tritici [16] = assay: Antifungal activity against azoxystrobin-sensitive Zymoseptoria tritici T0213 carrying cytochrome-b G143 allele assessed as inhibition of spore germination after 2 days at 18 degC by spotting on PDA medium assay; details: T0213, 48 h
Zymoseptoria tritici [17] = assay: Antifungal activity against azoxystrobin-sensitive Zymoseptoria tritici T0471 carrying cytochrome-b G143 allele assessed as inhibition of spore germination after 2 days at 18 degC by spotting on PDA medium assay; details: T0471, 48 h
Zymoseptoria tritici [18] = assay: Antifungal activity against azoxystrobin-sensitive Zymoseptoria tritici T0365 carrying cytochrome-b G143 allele assessed as fungal growth inhibition after 6 days at 20 degC by microplate without alamar blue assay; details: T0365, 144 h
Zymoseptoria tritici [19] = assay: Antifungal activity against azoxystrobin-resistant Zymoseptoria tritici T0242 carrying cytochrome-b A143 allele assessed as fungal growth inhibition after 6 days at 20 degC by microplate without alamar blue assay; details: T0242, 144 h
Zymoseptoria tritici [20] = assay: Antifungal activity against azoxystrobin-resistant Zymoseptoria tritici T0485 carrying cytochrome-b A143 allele assessed as fungal growth inhibition after 6 days at 20 degC by microplate without alamar blue assay; details: T0485, 144 h
Zymoseptoria tritici [21] = assay: Antifungal activity against azoxystrobin-resistant Zymoseptoria tritici T0251 carrying cytochrome-b A143 allele assessed as fungal growth inhibition after 6 days at 20 degC by microplate without alamar blue assay; details: T0251, 144 h
Zymoseptoria tritici [22] = assay: Antifungal activity against azoxystrobin-resistant Zymoseptoria tritici T032 carrying cytochrome-b A143 allele assessed as fungal growth inhibition after 6 days at 20 degC by microplate without alamar blue assay; details: T032, 144 h
Zymoseptoria tritici [23] = assay: Antifungal activity against azoxystrobin-resistant Zymoseptoria tritici T0345 carrying cytochrome-b A143 allele assessed as fungal growth inhibition after 6 days at 20 degC by microplate without alamar blue assay; details: T0345, 144 h
Zymoseptoria tritici [24] = assay: Antifungal activity against azoxystrobin-sensitive Zymoseptoria tritici T0466 carrying cytochrome-b G143 allele assessed as fungal colony perpendicular diameter changes after 10 days at 18 degC by spotting on PDA medium assay; details: T0466, 240 h
Zymoseptoria tritici [25] = assay: Antifungal activity against azoxystrobin-sensitive Zymoseptoria tritici IPO323 carrying cytochrome-b G143 allele assessed as fungal colony perpendicular diameter changes after 10 days at 18 degC by spotting on PDA medium assay; details: IPO323, 240 h
Zymoseptoria tritici [26] = assay: Antifungal activity against azoxystrobin-sensitive Zymoseptoria tritici T0211 carrying cytochrome-b G143 allele assessed as fungal colony perpendicular diameter changes after 10 days at 18 degC by spotting on PDA medium assay; details: T0211, 240 h
Zymoseptoria tritici [27] = assay: Antifungal activity against azoxystrobin-sensitive Zymoseptoria tritici T0214 carrying cytochrome-b G143 allele assessed as fungal colony perpendicular diameter changes after 10 days at 18 degC by spotting on PDA medium assay; details: T0214, 240 h
Zymoseptoria tritici [28] = assay: Antifungal activity against azoxystrobin-sensitive Zymoseptoria tritici IPO94269 carrying cytochrome-b G143 allele assessed as fungal colony perpendicular diameter changes after 10 days at 18 degC by spotting on PDA medium assay; details: IPO94269, 240 h
Zymoseptoria tritici [29] = assay: Antifungal activity against azoxystrobin-sensitive Zymoseptoria tritici T0473 carrying cytochrome-b G143 allele assessed as fungal colony perpendicular diameter changes after 10 days at 18 degC by spotting on PDA medium assay; details: T0473, 240 h
Zymoseptoria tritici [30] = assay: Antifungal activity against azoxystrobin-sensitive Zymoseptoria tritici T0209 carrying cytochrome-b G143 allele assessed as fungal colony perpendicular diameter changes after 10 days at 18 degC by spotting on PDA medium assay; details: T0209, 240 h

CO/C=C(/C(=O)OC)c1ccccc1Oc1cc(Oc2ccccc2C#N)ncn1 [AZOXYSTROBIN]
IC50 (Zymoseptoria tritici [1]): < 0.01 µg/mL | IC50 (Zymoseptoria tritici [2]): 0.02 µg/mL (≈ 0.0496 µM) | IC50 (Zymoseptoria tritici [3]): 0.03 µg/mL (≈ 0.0744 µM) | IC50 (Zymoseptoria tritici [4]): 0.76 µg/mL (≈ 1.88 µM) | IC50 (Zymoseptoria tritici [5]): < 0.01 µg/mL | IC50 (Zymoseptoria tritici [6]): 11.4 µg/mL (≈ 28.2 µM) | IC50 (Zymoseptoria tritici [7]): 20.1 µg/mL (≈ 49.8 µM) | IC50 (Zymoseptoria tritici [8]): 10.6 µg/mL (≈ 26.2 µM) | IC50 (Zymoseptoria tritici [9]): 0.17 µg/mL (≈ 0.421 µM) | IC50 (Zymoseptoria tritici [10]): 0.11 µg/mL (≈ 0.273 µM) | IC50 (Zymoseptoria tritici [11]): 10.2 µg/mL (≈ 25.2 µM) | IC50 (Zymoseptoria tritici [12]): > 100 µg/mL | IC50 (Zymoseptoria tritici [13]): 0.22 µg/mL (≈ 0.545 µM) | IC50 (Zymoseptoria tritici [14]): 0.08 µg/mL (≈ 0.198 µM) | IC50 (Zymoseptoria tritici [15]): 0.06 µg/mL (≈ 0.149 µM) | IC50 (Zymoseptoria tritici [16]): 0.16 µg/mL (≈ 0.397 µM) | IC50 (Zymoseptoria tritici [17]): 0.08 µg/mL (≈ 0.198 µM) | IC50 (Zymoseptoria tritici [18]): 0.16 µg/mL (≈ 0.397 µM) | IC50 (Zymoseptoria tritici [19]): > 100 µg/mL | IC50 (Zymoseptoria tritici [20]): > 100 µg/mL | IC50 (Zymoseptoria tritici [21]): > 100 µg/mL | IC50 (Zymoseptoria tritici [22]): > 100 µg/mL | IC50 (Zymoseptoria tritici [23]): > 100 µg/mL | IC50 (Zymoseptoria tritici [24]): 0.11 µg/mL (≈ 0.273 µM) | IC50 (Zymoseptoria tritici [25]): 0.03 µg/mL (≈ 0.0744 µM) | IC50 (Zymoseptoria tritici [26]): 0.08 µg/mL (≈ 0.198 µM) | IC50 (Zymoseptoria tritici [27]): 0.09 µg/mL (≈ 0.223 µM) | IC50 (Zymoseptoria tritici [28]): 0.1 µg/mL (≈ 0.248 µM) | IC50 (Zymoseptoria tritici [29]): 0.13 µg/mL (≈ 0.322 µM) | IC50 (Zymoseptoria tritici [30]): 0.14 µg/mL (≈ 0.347 µM)
